For one molecule, Km results are on record in patent US12359238B2 (priority 2017, dated 2025).

By Km is commonly meant the concentration of substrate that gives half-maximal velocity.

The test system of the assay is all wired variants (GDH-S247PDAz, FGM-S247PDAz, FGM-T558PDAz, FGM-S247PCA). Conditions: read-out: KM^app of all samples (electrochemical); glucose; range over all wired variants; 300 mV vs. Ag/AgCl.

In the case of `OC[C@H]1OC(O)[C@H](O)[C@@H](O)[C@@H]1O` (stereo partly shown) [glucose], the Km lay within 1550 to 1890 µM.
